Each block holds one substance with its values, some of them ahead of it.
Legend:
Test in all cases: Histone peptide microarray
Assay type in all cases: binding, human
PHF23 = conditions: for Array Heatmap value (peptide array signal): PHF23, sheet "Array Heatmap", each array performed twice, total n = 4
In short: (§1)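 Binding of recombinant GST-fused PHD readers (0.5 μM) is detected on an array of 293 histone peptides, modified singly or in combination. An optimized array protocol is followed, and each intensity is the average of quadruplicate measurements with standard deviation.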

BPTF (PB) = conditions: BPTF (PB); for Array Heatmap value (peptide array signal): sheet "Array Heatmap", each array performed twice, total n = 4
In short: as §1

TAF3 = conditions: for Array Heatmap value (peptide array signal): TAF3, sheet "Array Heatmap", each array performed twice, total n = 4
In short: as §1

PHRF1 (RP) = conditions: PHRF1 (RP); for Array Heatmap value (peptide array signal): sheet "Array Heatmap", each array performed twice, total n = 4
In short: as §1

DPF2 (PPC2W2) = conditions: DPF2 (PPC2W2); for Array Heatmap value (peptide array signal): sheet "Array Heatmap", each array performed twice, total n = 4
In short: as §1

ING2 = conditions: for Array Heatmap value (peptide array signal): ING2, sheet "Array Heatmap", each array performed twice, total n = 4
In short: as §1

MLL5 = conditions: for Array Heatmap value (peptide array signal): MLL5, sheet "Array Heatmap", each array performed twice, total n = 4
In short: as §1

PHF8 = conditions: for Array Heatmap value (peptide array signal): PHF8, sheet "Array Heatmap", each array performed twice, total n = 4
In short: as §1

DIDO1 = conditions: for Array Heatmap value (peptide array signal): DIDO1, sheet "Array Heatmap", each array performed twice, total n = 4
In short: as §1

BAZ2B = conditions: BAZ2B; for Array Heatmap value (peptide array signal): sheet "Array Heatmap", each array performed twice, total n = 4
In short: as §1

KDM5B (1) = conditions: KDM5B (1); for Array Heatmap value (peptide array signal): sheet "Array Heatmap", each array performed twice, total n = 4
In short: as §1

KDM5A (3) = conditions: KDM5A (3); for Array Heatmap value (peptide array signal): sheet "Array Heatmap", each array performed twice, total n = 4
In short: as §1

KDM5A (1) = conditions: KDM5A (1); for Array Heatmap value (peptide array signal): sheet "Array Heatmap", each array performed twice, total n = 4
In short: as §1

KDM5B (3) = conditions: KDM5B (3); for Array Heatmap value (peptide array signal): sheet "Array Heatmap", each array performed twice, total n = 4
In short: as §1

CHD4 (PPCC) = conditions: CHD4 (PPCC); for Array Heatmap value (peptide array signal): sheet "Array Heatmap", each array performed twice, total n = 4
In short: as §1

PHF21A = conditions: PHF21A; for Array Heatmap value (peptide array signal): sheet "Array Heatmap", each array performed twice, total n = 4
In short: as §1

CHD5 (PPCC) = conditions: CHD5 (PPCC); for Array Heatmap value (peptide array signal): sheet "Array Heatmap", each array performed twice, total n = 4
In short: as §1

ING3 = conditions: for Array Heatmap value (peptide array signal): ING3, sheet "Array Heatmap", each array performed twice, total n = 4
In short: as §1

PHF13 = conditions: for Array Heatmap value (peptide array signal): PHF13, sheet "Array Heatmap", each array performed twice, total n = 4
In short: as §1

ING4 = conditions: for Array Heatmap value (peptide array signal): ING4, sheet "Array Heatmap", each array performed twice, total n = 4
In short: as §1

ING1 = conditions: for Array Heatmap value (peptide array signal): ING1, sheet "Array Heatmap", each array performed twice, total n = 4
In short: as §1

KDM7A = conditions: KDM7A; for Array Heatmap value (peptide array signal): sheet "Array Heatmap", each array performed twice, total n = 4
In short: as §1

SP140L = conditions: SP140L; for Array Heatmap value (peptide array signal): sheet "Array Heatmap", each array performed twice, total n = 4
In short: as §1

AIRE (PP) = conditions: AIRE (PP); for Array Heatmap value (peptide array signal): sheet "Array Heatmap", each array performed twice, total n = 4
In short: as §1

RAG2 = conditions: for Array Heatmap value (peptide array signal): RAG2, sheet "Array Heatmap", each array performed twice, total n = 4
In short: as §1

ING5 = conditions: for Array Heatmap value (peptide array signal): ING5, sheet "Array Heatmap", each array performed twice, total n = 4
In short: as §1

MORC3 (CW) = conditions: MORC3 (CW); for Array Heatmap value (peptide array signal): sheet "Array Heatmap", each array performed twice, total n = 4
In short: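 GST-PHD reader, 0.5 μM, probed on 293-peptide histone array (single/combinatorial PTMs); optimized array protocol; signal = mean ± SD, n = 4.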

TRIM66 (PB) = conditions: TRIM66 (PB); for Array Heatmap value (peptide array signal): sheet "Array Heatmap", each array performed twice, total n = 4
In short: as §1

KDM4C (TTP) = conditions: KDM4C (TTP); for Array Heatmap value (peptide array signal): sheet "Array Heatmap", each array performed twice, total n = 4
In short: as §1

PHF2 = conditions: for Array Heatmap value (peptide array signal): PHF2, sheet "Array Heatmap", each array performed twice, total n = 4
In short: as §1

CHD5 (PCC) = conditions: CHD5 (PCC); for Array Heatmap value (peptide array signal): sheet "Array Heatmap", each array performed twice, total n = 4
In short: as §1

[1] = GST-tagged, arrays performed twice, n of 4

Substance: H4K5ac + K8ac + K12me1 + K16ac: H4 1-23
Array Heatmap value (peptide array signal) (PHF23): 0.5681 | Array Heatmap value (peptide array signal) (BPTF (PB)): 0.4205 | Array Heatmap value (peptide array signal) (TAF3): 0.2985 | Array Heatmap value (peptide array signal) (PHRF1 (RP)): 0.5035 | Array Heatmap value (peptide array signal) (DPF2 (PPC2W2)): 0.7404 | Array Heatmap value (peptide array signal) (ING2): 0.6062 | Array Heatmap value (peptide array signal) (MLL5): 0.5904 | Array Heatmap value (peptide array signal) (PHF8): 0.3954 | Array Heatmap value (peptide array signal) (DIDO1): 0.7398 | Array Heatmap value (peptide array signal) (BAZ2B): 0.5334 | Array Heatmap value (peptide array signal) (KDM5B (1)): 0.6517 | Array Heatmap value (peptide array signal) (KDM5A (3)): 0.4814 | Array Heatmap value (peptide array signal) (KDM5A (1)): 0.525 | Array Heatmap value (peptide array signal) (KDM5B (3)): 0.5615 | Array Heatmap value (peptide array signal) (CHD4 (PPCC)): 0.628 | Array Heatmap value (peptide array signal) (PHF21A): 0.5148 | Array Heatmap value (peptide array signal) (CHD5 (PPCC)): 0.6457 | Array Heatmap value (peptide array signal) (ING3): 0.5746 | Array Heatmap value (peptide array signal) (PHF13): 0.7176 | Array Heatmap value (peptide array signal) (ING4): 0.538 | Array Heatmap value (peptide array signal) (ING1): 0.5999 | Array Heatmap value (peptide array signal) (KDM7A): 0.3906 | Array Heatmap value (peptide array signal) (SP140L): 0.4016 | Array Heatmap value (peptide array signal) (AIRE (PP)): 0.4852 | Array Heatmap value (peptide array signal) (RAG2): 0.2841 | Array Heatmap value (peptide array signal) (ING5): 0.4233 | Array Heatmap value (peptide array signal) (MORC3 (CW)): 0.4079 | Array Heatmap value (peptide array signal) (TRIM66 (PB)): 0.6523 | Array Heatmap value (peptide array signal) (KDM4C (TTP)): 0.5546 | Array Heatmap value (peptide array signal) (PHF2): 0.5943 | Array Heatmap value (peptide array signal) (CHD5 (PCC)): 0.8246

Substance: H4K5ac + K8ac + K16ac: H4 1-23
Array Heatmap value (peptide array signal) (PHF23): 0.5402 | Array Heatmap value (peptide array signal) (BPTF (PB)): 0.3802 | Array Heatmap value (peptide array signal) (TAF3): 0.2628 | Array Heatmap value (peptide array signal) (PHRF1 (RP)): 0.4907 | Array Heatmap value (peptide array signal) (DPF2 (PPC2W2)): 0.7091 | Array Heatmap value (peptide array signal) (ING2): 0.5942 | Array Heatmap value (peptide array signal) (MLL5): 0.5646 | Array Heatmap value (peptide array signal) (PHF8): 0.3765 | Array Heatmap value (peptide array signal) (DIDO1): 0.7386 | Array Heatmap value (peptide array signal) (BAZ2B): 0.469 | Array Heatmap value (peptide array signal) (KDM5B (1)): 0.6453 | Array Heatmap value (peptide array signal) (KDM5A (3)): 0.4685 | Array Heatmap value (peptide array signal) (KDM5A (1)): 0.4528 | Array Heatmap value (peptide array signal) (KDM5B (3)): 0.4621 | Array Heatmap value (peptide array signal) (CHD4 (PPCC)): 0.6069 | Array Heatmap value (peptide array signal) (PHF21A): 0.485 | Array Heatmap value (peptide array signal) (CHD5 (PPCC)): 0.5628 | Array Heatmap value (peptide array signal) (ING3): 0.5105 | Array Heatmap value (peptide array signal) (PHF13): 0.6186 | Array Heatmap value (peptide array signal) (ING4): 0.4699 | Array Heatmap value (peptide array signal) (ING1): 0.5586 | Array Heatmap value (peptide array signal) (KDM7A): 0.3432 | Array Heatmap value (peptide array signal) (SP140L): 0.3822 | Array Heatmap value (peptide array signal) (AIRE (PP)): 0.4269 | Array Heatmap value (peptide array signal) (RAG2): 0.2519 | Array Heatmap value (peptide array signal) (ING5): 0.3649 | Array Heatmap value (peptide array signal) (MORC3 (CW)): 0.3785 | Array Heatmap value (peptide array signal) (TRIM66 (PB)): 0.6293 | Array Heatmap value (peptide array signal) (KDM4C (TTP)): 0.487 | Array Heatmap value (peptide array signal) (PHF2): 0.5897 | Array Heatmap value (peptide array signal) (CHD5 (PCC)): 0.7848

Array Heatmap value (peptide array binding signal) (PHF23; PHF23, GST-tagged, arrays performed twice, n of 4): 0.5198 | Array Heatmap value (peptide array binding signal) (BPTF (PB); [1]): 0.3517 | Array Heatmap value (peptide array binding signal) (TAF3; TAF3, GST-tagged, arrays performed twice, n of 4): 0.2841 | Array Heatmap value (peptide array binding signal) (PHRF1 (RP); [1]): 0.424 | Array Heatmap value (peptide array binding signal) (DPF2 (PPC2W2); [1]): 0.6807 | Array Heatmap value (peptide array binding signal) (ING2; ING2, GST-tagged, arrays performed twice, n of 4): 0.5873 | Array Heatmap value (peptide array binding signal) (MLL5; MLL5, GST-tagged, arrays performed twice, n of 4): 0.528 | Array Heatmap value (peptide array binding signal) (PHF8; PHF8, GST-tagged, arrays performed twice, n of 4): 0.3992 | Array Heatmap value (peptide array binding signal) (DIDO1; DIDO1, GST-tagged, arrays performed twice, n of 4): 0.6312 | Array Heatmap value (peptide array binding signal) (BAZ2B; [1]): 0.4714 | Array Heatmap value (peptide array binding signal) (KDM5B (1); [1]): 0.6318 | Array Heatmap value (peptide array binding signal) (KDM5A (3); [1]): 0.4472 | Array Heatmap value (peptide array binding signal) (KDM5A (1); [1]): 0.4957 | Array Heatmap value (peptide array binding signal) (KDM5B (3); [1]): 0.5165 | Array Heatmap value (peptide array binding signal) (CHD4 (PPCC); [1]): 0.551 | Array Heatmap value (peptide array binding signal) (PHF21A; [1]): 0.4994 | Array Heatmap value (peptide array binding signal) (CHD5 (PPCC); [1]): 0.5854 | Array Heatmap value (peptide array binding signal) (ING3; ING3, GST-tagged, arrays performed twice, n of 4): 0.4856 | Array Heatmap value (peptide array binding signal) (PHF13; PHF13, GST-tagged, arrays performed twice, n of 4): 0.6182 | Array Heatmap value (peptide array binding signal) (ING4; ING4, GST-tagged, arrays performed twice, n of 4): 0.4756 | Array Heatmap value (peptide array binding signal) (ING1; ING1, GST-tagged, arrays performed twice, n of 4): 0.5183 | Array Heatmap value (peptide array binding signal) (KDM7A; [1]): 0.4235 | Array Heatmap value (peptide array binding signal) (SP140L; [1]): 0.3819 | Array Heatmap value (peptide array binding signal) (AIRE (PP); [1]): 0.5662 | Array Heatmap value (peptide array binding signal) (RAG2; RAG2, GST-tagged, arrays performed twice, n of 4): 0.2557 | Array Heatmap value (peptide array binding signal) (ING5; ING5, GST-tagged, arrays performed twice, n of 4): 0.3695 | Array Heatmap value (peptide array binding signal) (MORC3 (CW); [1]): 0.3673 | Array Heatmap value (peptide array binding signal) (TRIM66 (PB); [1]): 0.5724 | Array Heatmap value (peptide array binding signal) (KDM4C (TTP); [1]): 0.5523 | Array Heatmap value (peptide array binding signal) (PHF2; PHF2, GST-tagged, arrays performed twice, n of 4): 0.4759 | Array Heatmap value (peptide array binding signal) (CHD5 (PCC); [1]): 0.8034
Substance: H4K5ac + K8ac: H4 1-23

Source: paper PMC6979384, “Characterization of the plant homeodomain (PHD) reader family for their histone tail interactions” (Epigenetics & Chromatin, 2020)
